This passage reports IC50 results from the Kinase Knowledgebase extract (Sharma et al. 2016).

Chain of MAPK14 (human) (Q16539 whole entry, looked up): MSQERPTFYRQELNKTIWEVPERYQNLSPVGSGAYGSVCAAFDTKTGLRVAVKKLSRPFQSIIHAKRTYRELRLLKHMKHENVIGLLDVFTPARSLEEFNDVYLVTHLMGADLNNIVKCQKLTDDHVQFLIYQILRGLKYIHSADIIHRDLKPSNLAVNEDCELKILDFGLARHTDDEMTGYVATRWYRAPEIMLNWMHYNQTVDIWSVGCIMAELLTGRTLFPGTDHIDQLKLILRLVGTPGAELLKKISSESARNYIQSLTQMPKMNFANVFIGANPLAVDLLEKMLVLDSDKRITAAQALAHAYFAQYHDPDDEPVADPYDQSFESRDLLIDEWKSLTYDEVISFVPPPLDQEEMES

The test addresses MAPK14 (human) (UniProt Q16539). Kind of test: Assessment of MAPK14 Kinase Activity.
The compound `CCc1ccc(-c2cc(NC(=O)Nc3cc(C(C)(C)C)sc3C(=O)N3CCN(C)C(=O)C3(C)C)ccc2C)cn1` had an IC50 of less than 100 nM.
For the compound `Cc1ccc(NC(=O)Nc2sc(C(C)(C)C)cc2C(=O)N2CCNC(=O)C2(C)C)cc1C#C[Si](C)(C)C`, the concentration for half-maximal inhibition (IC50) was less than 100 nM.
Under `CCNC(=O)c1ccc(-c2cc(NC(=O)Nc3sc(C(C)(C)C)cc3C(=O)N3CCN(C)C(=O)C3(C)C)ccc2C)cn1` stands less than 100 nM; under `Cc1ccc(NC(=O)Nc2sc(C(C)(C)C)cc2C(=O)N2CCNC(=O)C2(C)C)cc1-c1ccc(N2CCC(N(C)C)C2)nc1` (stereo unspecified), less than 100 nM; under `Cc1ccc(NC(=O)Nc2cn(C(C)(C)C)nc2C(=O)N2CCN(C)C(=O)C2(C)C)cc1-c1ccc(N2CCOCC2)cn1`, less than 100 nM.
Under `COc1ccc(-c2cc(NC(=O)Nc3sc(C(C)(C)C)cc3C(=O)N3CCN(C)C(=O)C3(C)C)c(F)cc2C)cn1` stands less than 100 nM; under `Cc1ccc(NC(=O)Nc2sc(C(C)(C)C)cc2C(=O)N2CCNC(=O)C2(C)C)cc1-c1ccc(N2CCN(C)CC2)cn1`, less than 100 nM.
As for `Cc1ccc(NC(=O)Nc2sc(C(C)(C)C)cc2C(=O)N2CCNC(=O)C2(C)C)cc1-c1cccc[n+]1[O-]`, the IC50 was less than 100 nM.
The compound `Cc1ccc(NC(=O)Nc2cc(C(C)(C)C)sc2C(=O)N2CCN(C(C)C)C(=O)C2(C)C)cc1-c1ccc(CN2CCOCC2)nc1` yielded an IC50 of less than 100 nM.
`CCNC(=O)c1ccc(-c2cc(NC(=O)Nc3sc(C(C)(C)C)cc3C(=O)N3CCNC(=O)C3(C)C)ccc2C)cn1` returned an IC50 of less than 100 nM.
In turn, `Cc1ccc(NC(=O)Nc2sc(C(C)(C)C)cc2C(=O)N2CCNC(=O)C2(C)C)cc1-c1ccc(C(C)C)nc1` displayed an IC50 of less than 100 nM.
For the compound `Cc1ccc(NC(=O)Nc2sc(C(C)(C)C)cc2C(=O)N2CCN(C)C(=O)C2(C)C)cc1-c1ccc(N2CCOCC2)nc1`, the concentration for half-maximal inhibition (IC50) is less than 100 nM.
The compound `Cc1ccc(NC(=O)Nc2sc(C(C)(C)C)cc2C(=O)N2CCNC(=O)C2(C)C)cc1-c1ccc(CN2CCOCC2)nc1` returned an IC50 of less than 100 nM.
Under `Cc1ccc(NC(=O)Nc2cn(C(C)(C)C)nc2C(=O)N2CCN(C3CCN(C)C3)C(=O)C2(C)C)cc1-c1cccnc1` (stereo unspecified) stands 100 to 1000 nM; under `Cc1ccc(NC(=O)Nc2sc(C(C)(C)C)cc2C(=O)N2CCNC(=O)C2(C)C)cc1-c1ccc(C(=O)N(C)C)nc1`, less than 100 nM.
In the case of `Cc1ccc(NC(=O)Nc2sc(C(C)(C)C)cc2C(=O)N2CCNC(=O)C2(C)C)cc1-c1ccc(N2CCOCC2)nc1`, the IC50 is less than 100 nM.
Regarding `Cc1ccc(NC(=O)Nc2cc(C(C)(C)C)oc2C(=O)N2CCN(C)C(=O)C2(C)C)cc1-c1ccc(CN2CCOCC2)cn1`, the IC50 was less than 100 nM.
Under `Cc1ccc(NC(=O)Nc2sc(C(C)(C)C)cc2C(=O)N2CCN(C)C(=O)C2(C)C)cc1-c1ccc(C(C)N2CCOCC2)nc1` (stereo unspecified) stands less than 100 nM; under `CC(C)(C)c1cc(C(=O)N2CCNC(=O)C2(C)C)c(NC(=O)Nc2ccc(F)c(-c3ccc(OCCN4CCOCC4)nc3)c2)s1`, less than 100 nM; under `Cc1ccc(NC(=O)Nc2cn(C(C)(C)C)nc2C(=O)N2CCNC(=O)C2(C)C)cc1-c1ccc(N2CCOCC2)nc1`, less than 100 nM.
The compound `Cc1ccc(NC(=O)Nc2cn(C(C)(C)C)nc2C(=O)N2CCNC(=O)C2(C)C)cc1-c1ccc(CN2CCOCC2)nc1` displayed an IC50 of less than 100 nM.
Under `Cc1ccc(NC(=O)Nc2cc(C(C)(C)C)sc2C(=O)N2CCN(C)C(=O)C2)cc1-c1ccc(CN2CCOCC2)nc1` stands less than 100 nM.
The figure for `Cc1ccc(NC(=O)Nc2sc(C(C)(C)C)cc2C(=O)N2CCNC(=O)C2(C)C)cc1-c1ccc(OCCN2CCCCC2)nc1` is less than 100 nM.
As to `Cc1ccc(NC(=O)Nc2sc(C(C)(C)C)cc2C(=O)N2CCN(C)C(=O)C2(C)C)cc1-c1ccc(C[N+]2([O-])CCOCC2)nc1`, the IC50 is less than 100 nM.
As for `COc1ccc(-c2cc(NC(=O)Nc3cc(C(C)(C)C)sc3C(=O)N3CCN(C)C(=O)C3(C)C)cc(F)c2C)cn1`, the concentration for half-maximal inhibition (IC50) is less than 100 nM.
Take `CCc1ccc(-c2cc(NC(=O)Nc3sc(C(C)(C)C)cc3C(=O)N3CCN(C)C(=O)C3(C)C)ccc2C)nc1`: the 50% inhibitory concentration (IC50) is less than 100 nM.
